For data set [1], the system named is orally 32P phosphate loaded rats. The experiment in a line: Blood radioactivity increase inhibiting action in orally 32P phosphate loaded rats (phosphate absorption inhibitory action). The class given is in vivo. Conditions: Rattus norvegicus, 0.5 h; 3 mg/kg oral, male Wistar rats; from serum radioactivity AUC0-30min vs control group; read-out: Phosphate absorption inhibitory rate (%). As to the method:
Blood Radioactivity Increase Inhibiting Action in Orally ^32P Phosphate Loaded Rats (Phosphate Absorption Inhibitory Action)
Male Wistar rats (6 to 7 weeks old) were fasted for 24 hours and used as experimental animals. The compound was dissolved or suspended with a solvent, and was used at a concentration of 0.6 mg/mL. The compound-administered animals were forcibly orally administered with the compound at a dose of 3 mg/kg. Control-group animals were administered a solvent containing no compound at a dose of 5 mL/kg. After 5 minutes from administration of the compound or from administration of the solvent, a ^32P-containing phosphate solution (8.3 mM NaH2PO4) was orally administered thereto at a dose of 7.2 mL/kg. After 15 minutes and 30 minutes, the blood was taken from the orbital venous plexus and the serum was collected. Radioactivity in 0.1 mL of the serum was measured by a liquid scintillation counter. AUC0-30min calculated from the measured counts was considered as a phosphate absorption amount. The phosphate absorption inhibitory rate was determined from the AUC0-30min value according to the following equation.
Phosphate absorption inhibitory rate (%)=(1−Phosphate absorption count of compound-administered group/Phosphate absorption count of control group)×100
As a result, it was confirmed that several compounds of the formula (I) have an intestinal phosphate absorption inhibitory action. With the several compounds of the formula (I), the phosphate absorption inhibitory rates at a pharmacological evaluation dose of 3 mg/kg are shown in Table 2.

For another data set, the target named is T1, rat NPT-IIb (Rattus norvegicus, UniProt Q9JJ09).
T1 construct: rat NPT-IIb ORF was cloned into p3×FLAG-CMV-10; 3xFLAG (N); expressed in transfected cells
T1 sequence (Q9JJ09 1-695): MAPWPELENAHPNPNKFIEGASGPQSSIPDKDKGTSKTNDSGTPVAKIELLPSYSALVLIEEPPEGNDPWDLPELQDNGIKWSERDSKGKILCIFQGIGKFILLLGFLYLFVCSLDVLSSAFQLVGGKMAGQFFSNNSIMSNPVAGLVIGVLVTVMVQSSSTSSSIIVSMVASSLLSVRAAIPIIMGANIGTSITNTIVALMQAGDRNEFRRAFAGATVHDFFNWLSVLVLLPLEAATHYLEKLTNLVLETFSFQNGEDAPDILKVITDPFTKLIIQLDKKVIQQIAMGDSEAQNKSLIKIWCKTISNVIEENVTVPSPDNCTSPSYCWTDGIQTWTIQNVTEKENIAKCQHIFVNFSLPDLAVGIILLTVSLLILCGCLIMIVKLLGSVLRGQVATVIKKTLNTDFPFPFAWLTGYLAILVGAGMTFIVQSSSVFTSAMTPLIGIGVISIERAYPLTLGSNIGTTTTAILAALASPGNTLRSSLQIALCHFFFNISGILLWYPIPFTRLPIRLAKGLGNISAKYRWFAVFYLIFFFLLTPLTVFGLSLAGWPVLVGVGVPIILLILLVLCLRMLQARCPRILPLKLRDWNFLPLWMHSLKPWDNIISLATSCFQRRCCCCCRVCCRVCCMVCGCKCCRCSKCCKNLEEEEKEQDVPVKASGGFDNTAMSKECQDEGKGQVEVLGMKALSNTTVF
The experiment in a line: 33P phosphate uptake inhibiting action of rat NPT-IIb expressing cell. The data set is classed as cell-based. Conditions: HEK293; evaluation concentration 1 μM; 33P uptake in rat NPT-IIb stably expressing 293 cells; read-out: Rat NPT-IIb inhibitory rate (%). The source says:
Test Example 1: ^33P Phosphate Uptake Inhibiting Action of Rat NPT-IIb Expressing Cell
Preparation of Rat NPT-IIb Expressing Cell
Using rat small intestine cDNA library as a template, rat NPT-IIb ORF was cloned into p3×FLAG-CMV-10 by PCR according to a standard method. Then, the cloned rat NPT-IIb expressing plasmid was transfected into 293 cells, and G418 was used to obtain a rat NPT-11b-stably expressing cell line.
Evaluation System on Inhibition of Phosphate Uptake into Rat NPT-IIb Expressing Cell
The rat NPT-Hb expressing cells were seeded into a 96-well plate and incubated overnight. The medium was taken out and washed with buffer A (137 mM N-methyl-D-glucamine, 5.4 mM KCl, 2.8 mM CaCl2, 1.2 mM MgCl2, 10 mM HEPES (adjusted to pH 7.4 with HCl)), and then buffer B (137 mM NaCl, 5.4 mM KCl, 2.8 mM CaCl2, 1.2 mM MgCl2, 0.1 mM KH2PO4, 10 mM HEPES (adjusted to pH 7.4 with KOH)) was added thereto. Then, a compound having 10-fold higher concentration relative to the evaluation concentration was prepared by dilution with the buffer B and added thereto, followed by incubation in CO2 incubator. Buffer B supplemented 50 μCi/mL ^33P was added thereto, followed by further incubation in a CO2 incubator. After the reaction, the buffer was taken out and the cells were washed with buffer C (137 mM NaCl, 10 mM Tris/HCl pH 7.2). Then, Microscint-20 was added thereto and ^33P uptake was measured by using TopCount. The inhibitory rate was determined according to the following equation.
Inhibitory rate (%)=(1−(^33P uptake of drug-treated well)/(^33P uptake of DMSO-added well))×100
For several compounds of the formula (I), rat NPT-11b inhibitory activity at a pharmacological evaluation concentration of 1 μM is shown in Table 1. Here, Ex represents Example No. as denoted below (this shall apply hereinafter).

Structures are written as SMILES.

Usually melting point stands for the temperature, or range, at which the solid turns liquid.

For the compound `CCN([C@H]1CC[C@H](C(=O)O)CC1)S(=O)(=O)c1cccc(C(=O)Nc2sc3c(c2C(=O)Nc2ccc(CCc4ccc(C(=O)O)cc4)cc2)CCCC3)c1` [Example 2, 4-{2-[4-({[2-({3-[(trans-4-carboxycyclohexyl)(ethyl)sulfamoyl]benzoyl}amino)-4,5,6,7-tetrahydro-1-benzothiophen-3-yl]carbonyl}amino)phenyl]ethyl}benzoic acid], the melting point amounted to 262.8 °C. The inhibition in vivo at 3 mg/kg in data set [1] is at least 60%. The inhibition at 1 µM on rat NPT-IIb was determined as 83%. Turning to `O=C(O)c1ccc(CCc2ccc(NC(=O)c3c(NC(=O)c4cccc(S(=O)(=O)N(C5CC5)[C@H]5CC[C@H](C(=O)O)CC5)c4)sc4c3CCCC4)cc2)cc1` [Example 4, 4-{2-[4-({[2-({3-[(trans-4-carboxycyclohexyl)(cyclopropyl)sulfamoyl]benzoyl}amino)-4,5,6,7-tetrahydro-1-benzothiophen-3-yl]carbonyl}amino)phenyl]ethyl}benzoic acid], the inhibition in vivo at 3 mg/kg in data set [1] is at least 60%. The inhibition at 1 µM at rat NPT-IIb came out at 82%. With `O=C(O)c1ccc(CCc2ccc(NC(=O)c3c(NC(=O)c4cccc(S(=O)(=O)N(C5CC5)[C@H]5CC[C@@H](C(=O)O)CC5)c4)sc4c3CCCC4)cc2)cc1` [Example 5, 4-{2-[4-({[2-({3-[(cis-4-carboxycyclohexyl)(cyclopropyl)sulfamoyl]benzoyl}amino)-4,5,6,7-tetrahydro-1-benzothiophen-3-yl]carbonyl}amino)phenyl]ethyl}benzoic acid], the inhibition at 1 µM on rat NPT-IIb was determined as 87%.

As for `CCOC(=O)CN(C1CC1)S(=O)(=O)c1cccc(C(=O)Nc2sc3c(c2C(=O)Nc2ccc(CCc4ccc(C(=O)OC)cc4)cc2)CCCC3)c1` [Example 6, methyl 4-{2-[4-({[2-({3-[cyclopropyl(2-ethoxy-2-oxoethyl)sulfamoyl]benzoyl}amino)-4,5,6,7-tetrahydro-1-benzothiophen-3-yl]carbonyl}amino)phenyl]ethyl}benzoate], the melting point came out at 186.8 °C. Regarding `CN(CCC(=O)O)S(=O)(=O)c1cccc(C(=O)Nc2sc3c(c2C(=O)Nc2ccc(CCc4ccc(C(=O)O)cc4)cc2)CCCC3)c1` [Example 10, 4-{2-[4-({[2-({3-[(2-carboxyethyl)(methyl)sulfamoyl]benzoyl}amino)-4,5,6,7-tetrahydro-1-benzothiophen-3-yl]carbonyl}amino)phenyl]ethyl}benzoic acid], the melting point was found to be 230.3 °C. For the same compound, the inhibition at 1 µM on rat NPT-IIb worked out at 42%. For `O=C(O)CCCN(C1CC1)S(=O)(=O)c1cccc(C(=O)Nc2sc3c(c2C(=O)Nc2ccc(CCc4ccc(C(=O)O)cc4)cc2)CCCC3)c1` [Example 12, 4-{2-[4-({[2-({3-[(3-carboxypropyl)(cyclopropyl)sulfamoyl]benzoyl}amino)-4,5,6,7-tetrahydro-1-benzothiophen-3-yl]carbonyl}amino)phenyl]ethyl}benzoic acid], the melting point came out at 250.8 °C. Besides, the inhibition in vivo at 3 mg/kg in data set [1] is at least 60%. The inhibition at 1 µM on rat NPT-IIb was 76%. In turn, `CCN(C1(C(=O)O)CC1)S(=O)(=O)c1cccc(C(=O)Nc2sc3c(c2C(=O)Nc2ccc(CCc4ccc(C(=O)O)cc4)cc2)CCCC3)c1` [Example 14, 4-{2-[4-({[2-({3-[(1-carboxycyclopropyl)(ethyl)sulfamoyl]benzoyl}amino)-4,5,6,7-tetrahydro-1-benzothiophen-3-yl]carbonyl}amino)phenyl]ethyl}benzoic acid] yielded a melting point of 254.7 °C. Further, in data set [1], the inhibition in vivo at 3 mg/kg is 47%. The inhibition at 1 µM at rat NPT-IIb came out at 71%.

Take `CC(C)N(C1(C(=O)O)CC1)S(=O)(=O)c1cccc(C(=O)Nc2sc3c(c2C(=O)Nc2ccc(CCc4ccc(C(=O)O)cc4)cc2)CCCC3)c1` [Example 17, 4-{2-[4-({[2-({3-[(1-carboxycyclopropyl)(isopropyl)sulfamoyl]benzoyl}amino)-4,5,6,7-tetrahydro-1-benzothiophen-3-yl]carbonyl}amino)phenyl]ethyl}benzoic acid]: the melting point turned out to be 261.4 °C. The inhibition at 1 µM at rat NPT-IIb was found to be 75%.

`CCN(c1ccc(C(=O)O)cc1)S(=O)(=O)c1cccc(C(=O)Nc2sc3c(c2C(=O)Nc2ccc(CCc4ccc(C(=O)O)cc4)cc2)CCCC3)c1` [Example 21] registered a melting point of 159.4 °C. For the same compound, the inhibition at 1 µM on rat NPT-IIb stood at 85%.

Regarding `C[C@@]1(C(=O)O)CCCN1S(=O)(=O)c1cccc(C(=O)Nc2sc3c(c2C(=O)Nc2ccc(CCc4ccc(C(=O)O)cc4)cc2)CCCC3)c1` [Example 25, 1-[(3-{[3-({4-[2-(4-carboxyphenyl)ethyl]phenyl}carbamoyl)-4,5,6,7-tetrahydro-1-benzothiophen-2-yl]carbamoyl}phenyl)sulfonyl]-2-methylproline], the inhibition at 1 µM on rat NPT-IIb was found to be 52%. `CC(=O)N1CCN(S(=O)(=O)c2cccc(C(=O)Nc3sc4c(c3C(=O)Nc3ccc(CCc5ccc(C(=O)O)cc5)cc3)CCCC4)c2)CC1` [Example 27, 4-{2-[4-({[2-({3-[(4-acetylpiperazin-1-yl)sulfonyl]benzoyl}amino)-4,5,6,7-tetrahydro-1-benzothiophen-3-yl]carbonyl}amino)phenyl]ethyl}benzoic acid] displayed a melting point of 241.4 °C. Also, the inhibition at 1 µM at rat NPT-IIb is 58%. In the case of `CN(CC(O)CO)S(=O)(=O)c1cccc(C(=O)Nc2sc3c(c2C(=O)Nc2ccc(CCc4ccc(C(=O)O)cc4)cc2)CCCC3)c1` (centres unmarked) [Example 29, 4-{2-[4-({[2-({3-[(2,3-dihydroxypropyl)(methyl)sulfamoyl]benzoyl}amino)-4,5,6,7-tetrahydro-1-benzothiophen-3-yl]carbonyl}amino)phenyl]ethyl}benzoic acid], at rat NPT-IIb, the inhibition at 1 µM stood at 51%. As to `CC(C)N(Cc1cccc(C(=O)O)c1)S(=O)(=O)c1cccc(C(=O)Nc2sc3c(c2C(=O)Nc2ccc(CCc4ccc(C(=O)O)cc4)cc2)CCCC3)c1` [Example 58], the inhibition in vivo at 3 mg/kg in data set [1] was at least 60%. Further, the inhibition at 1 µM at rat NPT-IIb worked out at 65%.

With `CCOC(=O)C1(N(CC)S(=O)(=O)c2cccc(C(=O)Nc3sc4c(c3C(=O)Nc3ccc(CCc5ccc(C(=O)O)cc5)cc3)CCCC4)c2)CC1` [Example 70], on rat NPT-IIb, the inhibition at 1 µM turned out to be 83%. As for `CCCN([C@H]1CC[C@H](C(=O)O)CC1)S(=O)(=O)c1cccc(C(=O)Nc2sc3c(c2C(=O)Nc2ccc(CCCc4ccc(C(=O)O)cc4)cc2)CCCC3)c1` [Example 102], the inhibition in vivo at 3 mg/kg in data set [1] was at least 60%. Moreover, at rat NPT-IIb, the inhibition at 1 µM worked out at 87%. Turning to `CC(=O)N1CCN(S(=O)(=O)c2cccc(C(=O)Nc3sc4c(c3C(=O)Nc3ccc(CCCc5ccc(C(=O)O)cc5)cc3)CCCC4)c2)CC1` [Example 109], on rat NPT-IIb, the inhibition at 1 µM worked out at 52%.

Source of the values: US20130029973A1, “TETRAHYDROBENZOTHIOPHENE COMPOUND” (ASTELLAS PHARMA INC., priority 2010, published 2013).
